Laboratory results as given in patent publication US12703850B2, “Photostabilized compositions and a method for stabilizing photosensitive components” (Evonik Operations GmbH, priority 2022, dated 2026).
Where a SMILES comes first, the peptide text is derived from it.

Experiments:
Format in all cases: physicochemical
[1] = Brown color index of solutions with 0.013 mM riboflavin exposed to day light, Example 2; conditions: for Color after exposure (in words): amino acid up to 32 mM, 7 days; for Brown color index in cell culture media (MEM) Day 7 / Brown color index in cell culture media (MEM) Day 0 / Brown color index in PBS Day 7 / Brown color index in PBS Day 0: with 0.013 mM riboflavin; for Brown color index in cell culture media (MEM) Day 7 / Brown color index in PBS Day 7: 7 days day light; for Brown colorization after exposure (in words): 2 mM, any type of aqueous solution used
Procedure: Aqueous solutions of 2.5 mM L-Tryptophan (Trp) and 0.013 mM riboflavin were prepared in phosphate-buffered saline (D-PBS) as well as in Minimal Essential Medium (MEM). These solutions were used to dissolve the dipeptides L-alanyl-L-tyrosine dihydrate (Ala-Tyr) and glycyl-L-tyrosine dihydrate (Gly-Tyr) as well as the amino acids L-tyrosine (Tyr), L-alanine (Ala), and glycine (Gly) at several concentrations to create solvent mixtures. In example 1, the dipeptides were tested at concentrations of 0.5 mM, 2.5 mM and 10 mM and Tyr at a concentration of 0.5 mM. PBS and MEM as well as 2.5 mM Trp dissolved in PBS and MEM were used as controls. In example 2, the dipeptides and Tyr were tested at a concentration of 2 mM, Ala and Gly at 32 mM, and the solvent (PBS or MEM) was used as control (“solvent background”).
(§1) The samples were exposed to electromagnetic radiation (day light) at room temperature for seven (example 2) as well as 14 days (example 1). A relative quantification of the brown color of the samples of example 1 was obtained by measuring the absorbance at 330 nm. The intensity of the brown color of samples of example 2 was determined by eye using a brown color index.
Aqueous solutions of PBS or MEM containing 0.013 mM riboflavin show a week fluorescent yellow-green color. Exposure to electromagnetic radiation at room temperature for seven days results in a brown colorization of the MEM solution, while the yellow-green color in PBS solutions vanished.

[2] = Brown color index of solutions without riboflavin exposed to day light, Example 2; conditions: for Color after exposure (in words): amino acid up to 32 mM, 7 days electromagnetic radiation; for Color after exposure (in words) / Brown color index in cell culture media (MEM) Day 7 / Brown color index in PBS Day 7: room temperature; for Brown color index in cell culture media (MEM) Day 7 / Brown color index in cell culture media (MEM) Day 0 / Brown color index in PBS Day 7 / Brown color index in PBS Day 0: without 0.013 mM riboflavin; for Brown color index in cell culture media (MEM) Day 7 / Brown color index in PBS Day 7: 7 days day light
Procedure: […] These solutions were used to dissolve the dipeptides L-alanyl-L-tyrosine dihydrate (Ala-Tyr) and glycyl-L-tyrosine dihydrate (Gly-Tyr) as well as the amino acids L-tyrosine (Tyr), L-alanine (Ala), and glycine (Gly) at several concentrations to create solvent mixtures. In example 1, the dipeptides were tested at concentrations of 0.5 mM, 2.5 mM and 10 mM and Tyr at a concentration of 0.5 mM. PBS and MEM as well as 2.5 mM Trp dissolved in PBS and MEM were used as controls. In example 2, the dipeptides and Tyr were tested at a concentration of 2 mM, Ala and Gly at 32 mM, and the solvent (PBS or MEM) was used as control (“solvent background”).
as §1
Other control solutions of PBS and MEM without riboflavin were colorless at day 0.

[3] = Brown colorization of tryptophan solutions exposed to day light (absorbance at 330 nm), Example 1; conditions: room temperature; for Effect on brown colorization compared with Tyr: 0.5 mM Tyr-dipeptide versus 0.5 mM Tyr; for Effect on brown colorization compared with Tyr / Effect on brown colorization of Trp solution: day light; for Effect on brown colorization of Trp solution: 14 days
Procedure: Aqueous solutions of 2.5 mM L-Tryptophan (Trp) and 0.013 mM riboflavin were prepared in phosphate-buffered saline (D-PBS) as well as in Minimal Essential Medium (MEM). These solutions were used to dissolve the dipeptides L-alanyl-L-tyrosine dihydrate (Ala-Tyr) and glycyl-L-tyrosine dihydrate (Gly-Tyr) as well as the amino acids L-tyrosine (Tyr), L-alanine (Ala), and glycine (Gly) at several concentrations to create solvent mixtures. […] PBS and MEM as well as 2.5 mM Trp dissolved in PBS and MEM were used as controls.
The intensity of the brown color was measured as absorbance difference at 330 nm.

[4] = addition of 0.5 mM to 2.5 mM Trp in PBS or MEM, absorbance at 330 nm
[5] = dipeptide concentrations of up to 10 mM, 2.5 mM Trp in PBS or MEM
[6] = 7 days electromagnetic radiation, room temperature

Row | Structure (SMILES) | Brown color index in cell culture media (MEM) Day 7 ([2]; sample 32 mM) | Brown color index in cell culture media (MEM) Day 0 ([2]; sample 32 mM) | Brown color index in PBS Day 7 ([2]; sample 32 mM) | Brown color index in PBS Day 0 ([2]; sample 32 mM) | Effect on brown colorization of Trp solution [3, 4] | Brown colorization after exposure (in words) [1, 6] | Brown color index in cell culture media (MEM) Day 7 ([1]; sample 2 mM, room temperature) | Brown color index in cell culture media (MEM) Day 0 ([1]; sample 2 mM) | Brown color index in PBS Day 7 ([1]; sample 2 mM, room temperature) | Brown color index in PBS Day 0 ([1]; sample 2 mM) | other results
1 | C[C@H](N)C(=O)O [Ala, L-alanine] | 1 (week brown color) | 0 (no brown color) | 0 (no brown color) | 0 (no brown color) |  |  |  |  |  |  | Color after exposure (in words) ([1]; MEM with 0.013 mM riboflavin): normal brown; Color after exposure (in words) ([1]; PBS with 0.013 mM riboflavin): stayed colorless; Brown color index in cell culture media (MEM) Day 7 ([1]; sample 32 mM, room temperature): 3; Brown color index in cell culture media (MEM) Day 0 ([1]; sample 32 mM): 0 (no brown color); Brown color index in PBS Day 7 ([1]; sample 32 mM, room temperature): 0 (no brown color); Brown color index in PBS Day 0 ([1]; sample 32 mM): 0 (no brown color); Color after exposure (in words) ([2]; MEM without riboflavin): week brown; Color after exposure (in words) ([2]; PBS without riboflavin): stayed colorless
2 | C[C@H](N)C(=O)N[C@@H](Cc1ccc(O)cc1)C(=O)O.O.O [Ala-Tyr, L-alanyl-L-tyrosine dihydrate] (H-Ala-Tyr-OH) | 1 (week brown color) | 0 (no brown color) | 0 (no brown color) | 0 (no brown color) | reduce this colorization | normal brown color | 3 | 0 (no brown color) | 3 | 0 (no brown color) | Effect on brown colorization compared with Tyr ([3]; 2.5 mM Trp in PBS or MEM): the effect is greater; Effect on brown colorization of Trp solution [3, 5]: further reduction or even completely prevented the change in color
3 | NCC(=O)O [Gly, glycine] | 1 (week brown color) | 0 (no brown color) | 0 (no brown color) | 0 (no brown color) |  |  |  |  |  |  | Color after exposure (in words) ([1]; MEM with 0.013 mM riboflavin): normal brown; Color after exposure (in words) ([1]; PBS with 0.013 mM riboflavin): stayed colorless; Brown color index in cell culture media (MEM) Day 7 ([1]; sample 32 mM, room temperature): 3; Brown color index in cell culture media (MEM) Day 0 ([1]; sample 32 mM): 0 (no brown color); Brown color index in PBS Day 7 ([1]; sample 32 mM, room temperature): 0 (no brown color); Brown color index in PBS Day 0 ([1]; sample 32 mM): 0 (no brown color); Color after exposure (in words) ([2]; MEM without riboflavin): week brown; Color after exposure (in words) ([2]; PBS without riboflavin): stayed colorless
4 | NCC(=O)N[C@@H](Cc1ccc(O)cc1)C(=O)O.O.O [Gly-Tyr, glycyl-L-tyrosine dihydrate] (H-Gly-Tyr-OH) | 1 (week brown color) | 0 (no brown color) | 0 (no brown color) | 0 (no brown color) | reduce this colorization | normal brown color | 3 | 0 (no brown color) | 3 | 0 (no brown color) | Effect on brown colorization compared with Tyr ([3]; 2.5 mM Trp in PBS or MEM): the effect is greater; Effect on brown colorization of Trp solution [3, 5]: further reduction or even completely prevented the change in color
5 | N[C@@H](Cc1c[nH]c2ccccc12)C(=O)O [Trp, L-Tryptophan] |  |  |  |  |  |  |  |  |  |  | Color change on exposure to electromagnetic radiation ([3]; 2.5 mM Trp alone in PBS or MEM): strong color change towards brown color
6 | N[C@@H](Cc1ccc(O)cc1)C(=O)O [Tyr, L-tyrosine] |  |  |  |  | reduce this colorization | strong brown | 5 (strong brown color) | 0 (no brown color) | 5 (strong brown color) | 0 (no brown color) | Brown color index in cell culture media (MEM) Day 7 ([2]; sample 2 mM): 2 (moderate brown color); Brown color index in cell culture media (MEM) Day 0 ([2]; sample 2 mM): 0 (no brown color); Brown color index in PBS Day 7 ([2]; sample 2 mM): 0 (no brown color); Brown color index in PBS Day 0 ([2]; sample 2 mM): 0 (no brown color)
7 | Cc1cc2nc3c(=O)[nH]c(=O)nc-3n(C[C@H](O)[C@H](O)[C@H](O)CO)c2cc1C [riboflavin, (−)-Riboflavin] |  |  |  |  |  |  |  |  |  |  | Intensity of brown color (brown color index, in words) ([1]; 0.013 mM riboflavin alone in MEM, 7 days electromagnetic radiation, room temperature): normal brown color; Yellow-green color after exposure ([1]; 0.013 mM riboflavin alone in PBS, 7 days electromagnetic radiation, room temperature): vanished
